Assay results: ChEMBL document CHEMBL3045270, “Synthesis and Fungicidal Activities of Heterocyclic Compounds Having -Methoxyimino-2-phenoxymethylbenzyl Group” (2000)

Columns and labels:
Assay type in all cases: functional
[1] = test system: Botrytis cinerea; assay: Fungicidal activity against Botryotinia fuckeliana infected cucumber plant at 500 ppm by foliar application
[2] = test system: Podosphaera fuliginea; assay: Fungicidal activity against Podosphaera fuliginea infected cucumber plant at 7.8 ppm by foliar application
[3] = test system: Podosphaera fuliginea; assay: Curative fungicidal activity against Podosphaera fuliginea infected cucumber plant at 7.8 ppm by foliar application
[4] = test system: Botrytis cinerea; assay: Fungicidal activity against Botryotinia fuckeliana infected cucumber plant at 7.8 ppm by foliar application
[5] = test system: Botrytis cinerea; assay: Preventive fungicidal activity against Botryotinia fuckeliana infected cucumber plant at 31.3 ppm by foliar application
[6] = test system: Podosphaera fuliginea; assay: Curative fungicidal activity against Podosphaera fuliginea infected cucumber plant at 31.3 ppm by foliar application
[7] = test system: Botrytis cinerea; assay: Preventive fungicidal activity against Botryotinia fuckeliana infected cucumber plant at 7.8 ppm by foliar application
[8] = test system: Podosphaera fuliginea; assay: Preventive fungicidal activity against Podosphaera fuliginea infected cucumber plant at 7.8 ppm by foliar application
[9] = test system: Botrytis cinerea; assay: Curative fungicidal activity against Botryotinia fuckeliana infected cucumber plant at 31.3 ppm by foliar application
[10] = test system: Podosphaera fuliginea; assay: Preventive fungicidal activity against Podosphaera fuliginea infected cucumber plant at 31.3 ppm by foliar application
[11] = test system: Botrytis cinerea; assay: Curative fungicidal activity against Botryotinia fuckeliana infected cucumber plant at 7.8 ppm by foliar application
[12] = test system: Podosphaera fuliginea; assay: Fungicidal activity against Podosphaera fuliginea infected cucumber plant at 500 ppm by foliar application
[13] = test system: Podosphaera fuliginea; assay: Fungicidal activity against Podosphaera fuliginea infected cucumber plant at 31.3 ppm by foliar application
[14] = test system: Botrytis cinerea; assay: Fungicidal activity against Botryotinia fuckeliana infected cucumber plant at 125 ppm by foliar application
[15] = test system: Podosphaera fuliginea; assay: Fungicidal activity against Podosphaera fuliginea infected cucumber plant at 125 ppm by foliar application
[16] = test system: Botrytis cinerea; assay: Fungicidal activity against Botryotinia fuckeliana infected cucumber plant at 31.3 ppm by foliar application

Compound: CO/N=C(/c1nnco1)c1ccccc1COc1ccc(Cl)cc1Cl
- Activity [1]: <50%
- Activity [2]: 90%

Compound: CO/N=C(\c1ccccc1COc1ccc(Cl)cc1C)c1nccn1C
- Activity [3]: 100%
- Activity [4]: <90%
- Activity [5]: 55%
- Activity [2]: 90%
- Activity [6]: 100%
- Activity [7]: 60%
- Activity [8]: 100%
- Activity [9]: 55%
- Activity [10]: 100%
- Activity [11]: 55%

Compound: CO/N=C(/c1ncn[nH]1)c1ccccc1COc1cc(C)ccc1C
- Activity [1]: <50%
- Activity [12]: <90%

Compound: CO/N=C(\c1ccccc1COc1cc(C)ccc1C)c1ncnn1C
- Activity [1]: <50%
- Activity [12]: <90%

Compound: CO/N=C(\c1ccccc1COc1cc(C)ccc1C)c1nnnn1C
- Activity [1]: <50%
- Activity [12]: <90%

Compound: CO/N=C(/c1ncno1)c1ccccc1COc1cc(C)ccc1C
- Activity [1]: <50%
- Activity [12]: <90%

Compound: CO/N=C(/c1ncon1)c1ccccc1COc1cc(C)ccc1C
- Activity [1]: <50%
- Activity [13]: 90%

Compound: CO/N=C(/c1noc(C)n1)c1ccccc1COc1cc(C)ccc1C
- Activity [1]: <50%
- Activity [13]: 90%

Compound: CO/N=C(/c1nnco1)c1ccccc1COc1cc(C)ccc1C
- Activity [2]: 90%
- Activity [14]: <90%

Compound: CO/N=C(/c1nnc(C)o1)c1ccccc1COc1cc(C)ccc1C
- Activity [1]: <50%
- Activity [2]: 90%

Compound: CO/N=C(\c1ccccc1COc1cc(C)ccc1C)c1snnc1C
- Activity [1]: <50%
- Activity [15]: 90%

Compound: CO/N=C(\c1ccccc1COc1ccccc1)c1nccn1C
- Activity [1]: <50%
- Activity [12]: 90%

Compound: CO/N=C(\c1ccccc1COc1ccccc1Cl)c1nccn1C
- Activity [1]: <50%
- Activity [2]: 90%

Compound: CO/N=C(\c1ccccc1COc1cccc(Cl)c1)c1nccn1C
- Activity [1]: <50%
- Activity [2]: 90%

Compound: CO/N=C(\c1ccccc1COc1ccc(Cl)cc1)c1nccn1C
- Activity [1]: <50%
- Activity [2]: 90%

Compound: CO/N=C(\c1ccccc1COc1ccccc1C)c1nccn1C
- Activity [2]: 90%
- Activity [14]: <90%

Compound: CO/N=C(\c1ccccc1COc1cccc(C)c1)c1nccn1C
- Activity [1]: <50%
- Activity [15]: 90%

Compound: CO/N=C(\c1ccccc1COc1ccc(C)cc1)c1nccn1C
- Activity [1]: <50%
- Activity [2]: 90%

Compound: CO/N=C(\c1ccccc1COc1ccccc1OC)c1nccn1C
- Activity [1]: <50%
- Activity [12]: 90%

Compound: CO/N=C(\c1ccccc1COc1ccc(Cl)cc1Cl)c1nccn1C
- Activity [1]: <50%
- Activity [2]: 90%

Compound: CO/N=C(\c1ccccc1COc1cc(Cl)ccc1Cl)c1nccn1C
- Activity [1]: <50%
- Activity [2]: 90%

Compound: CO/N=C(/c1nnco1)c1ccccc1COc1ccccc1
- Activity [1]: <50%
- Activity [13]: 90%

Compound: CO/N=C(/c1nnco1)c1ccccc1COc1ccccc1Cl
- Activity [1]: <50%
- Activity [13]: 90%

Compound: CO/N=C(/c1nnco1)c1ccccc1COc1cccc(Cl)c1
- Activity [1]: <50%
- Activity [15]: 90%

Compound: CO/N=C(/c1nnco1)c1ccccc1COc1ccc(Cl)cc1
- Activity [1]: <50%
- Activity [12]: 90%

Compound: CO/N=C(/c1nnco1)c1ccccc1COc1ccccc1C
- Activity [2]: 90%
- Activity [14]: <90%

Compound: CO/N=C(/c1nnco1)c1ccccc1COc1cccc(C)c1
- Activity [1]: <50%
- Activity [15]: 90%

Compound: CO/N=C(/c1nnco1)c1ccccc1COc1ccccc1OC
- Activity [1]: <50%
- Activity [12]: 90%

Compound: CO/N=C(/c1nnco1)c1ccccc1COc1cc(Cl)ccc1Cl
- Activity [1]: <50%
- Activity [2]: 90%

Compound: CO/N=C(/c1nnco1)c1ccccc1COc1ccc(Cl)cc1C
- Activity [3]: 100%
- Activity [5]: 65%
- Activity [2]: 90%
- Activity [6]: 100%
- Activity [7]: 30%
- Activity [8]: 100%
- Activity [9]: 50%
- Activity [16]: <90%
- Activity [10]: 100%
- Activity [11]: 30%

Compound: CO/N=C(/c1ccccc1COc1ccc(Cl)cc1C)c1nccn1C
- Activity [1]: <50%
- Activity [12]: 90%

Compound: CO/N=C(\c1nnco1)c1ccccc1COc1ccc(Cl)cc1C
- Activity [1]: <50%
- Activity [15]: 90%

Compound: CO/N=C(/c1ccon1)c1ccccc1COc1ccc(C)cc1C
- Activity [3]: 100%
- Activity [5]: 40%
- Activity [6]: 100%
- Activity [7]: 20%
- Activity [8]: 100%
- Activity [9]: 30%
- Activity [10]: 100%
- Activity [11]: 30%

Compound: CON=C(c1ccco1)c1ccccc1COc1cc(C)ccc1C (mixture of isomers)
- Activity [1]: <50%
- Activity [12]: 90%

Compound: CON=C(c1cccs1)c1ccccc1COc1cc(C)ccc1C (mixture of isomers)
- Activity [1]: <50%
- Activity [12]: <90%

Compound: CON=C(c1ccccc1COc1cc(C)ccc1C)c1ccnn1C (mixture of isomers)
- Activity [1]: <50%
- Activity [12]: <90%

Compound: CON=C(c1ccccc1COc1cc(C)ccc1C)c1nccn1C (mixture of isomers)
- Activity [2]: 90%
- Activity [16]: <90%

Compound: CON=C(c1cnco1)c1ccccc1COc1cc(C)ccc1C (mixture of isomers)
- Activity [1]: <50%
- Activity [12]: 90%

Compound: CON=C(c1nccs1)c1ccccc1COc1cc(C)ccc1C (mixture of isomers)
- Activity [1]: <50%
- Activity [12]: <90%

Compound: CON=C(c1cc(C)ns1)c1ccccc1COc1cc(C)ccc1C (mixture of isomers)
- Activity [1]: <50%
- Activity [12]: <90%

Compound: CNC(=O)/C(=N/OC)c1ccccc1Oc1ccccc1 [METOMINOSTROBIN]
- Activity [3]: 70%
- Activity [5]: 55%
- Activity [6]: 97%
- Activity [7]: 30%
- Activity [8]: 70%
- Activity [9]: 40%
- Activity [10]: 100%
- Activity [11]: 30%
